According to patent US20250144067A1, “PERSONALIZED STARVATION THERAPY FOR CANCER” (Faeth Therapeutics, Inc., priority 2021, published 2025):
Structures can show the parent of a compound that is named as a salt.

Legend:
[1] = tested on: NCI-H292 lung cancer cells; test: FDA drug screening, complete media vs cholesterol-free media with simvastatin (TABLE 2); assay type: cell-based, human; conditions: for Cholesterol-free media + simvastatin (0.04 μM) / Complete Media: NCI-H292 cells
[2] = tested on: NCI-H292 lung cancer cells; test: FDA drug screening, complete media vs cholesterol-free media without statin (TABLE 1); assay type: cell-based, human
[3] = drug in cholesterol-free media with simvastatin 0.04 μM
[4] = complete media vs cholesterol-free media + simvastatin (0.04 μM), >0 enhanced anti-cancer activity, about 0 neutral, <0 antagonist
[5] = Complete minus Cholesterol-free, greater than 0 enhanced anti-cancer activity, about 0 neutral, below 0 antagonists
[6] = NCI-H292 cells in cholesterol-free media without statin
[7] = NCI-H292 cells in complete media
[8] = cholesterol-free media with simvastatin 0.04 μM, FDA drug library screen (TABLE 2)
[9] = complete media, FDA drug library screen (TABLE 2)
[10] = Complete minus Cholesterol-free, […]
[11] = NCI-H292 cells, FDA drug library screen, cholesterol-free media without statin
[12] = complete media minus cholesterol-free media + simvastatin, >0 enhanced anti-cancer activity, about 0 neutral, <0 antagonist
[13] = Complete minus Cholesterol-free, >0 enhanced anti-cancer activity, about 0 neutral, <0 antagonist
[14] = NCI-H292 cells, cholesterol-free media without statin
[15] = NCI-H292 cells, cholesterol-free media without statin, FDA drug library screen
[16] = NCI-H292 cells, complete media, FDA drug library screen
[17] = FDA drug library screen, cholesterol-free media with simvastatin 0.04 μM
[18] = FDA drug library screen, complete media
[19] = complete vs cholesterol-free media, greater than 0 enhanced anti-cancer activity, about 0 neutral, below 0 antagonists
[20] = FDA library drug in cholesterol-free media with simvastatin 0.04 μM
[21] = FDA library drug in complete media

CC[C@H]1OC(=O)[C@H](C)[C@@H](O[C@H]2C[C@@](C)(OC)[C@@H](O)[C@H](C)O2)[C@H](C)[C@@H](O[C@@H]2O[C@H](C)C[C@H](N(C)C)[C@H]2O)[C@](C)(O)C[C@@H](C)C(=O)[C@H](C)[C@@H](O)[C@]1(C)O [Erythromycin]
Cholesterol-free media + simvastatin (0.04 μM) [1, 3]: 1.202 | Complete Media ([1]; drug in complete media): 0.9929 | Difference [1, 4]: −0.21 | Difference [2, 5]: −0.99 | Cholesterol-free [2, 6]: 1.913 | Complete [2, 7]: 0.9269

Cc1c(C(=O)Nc2ccc(S(C)(=O)=O)cc2)cn(CCO)c1-c1ccccc1C(F)(F)F [Esaxerenone]
Cholesterol-free media + simvastatin (0.04 μM) [1, 8]: 0.9763 | Complete Media [1, 9]: 0.9118 | Difference ([1]; complete media minus cholesterol-free media + simvastatin (0.04 μM), […]): −0.06 | Difference [2, 10]: −0.14 | Cholesterol-free [2, 11]: 1.29

CC(=O)O[C@H]1Cc2ccccc2N(C(N)=O)c2ccccc21 [Eslicarbazepine acetate]
Cholesterol-free media + simvastatin (0.04 μM) ([1]; cholesterol-free media with simvastatin 0.04 μM, cell growth value in FDA drug screen): 1.032 | Complete Media ([1]; complete media, cell growth value in FDA drug screen): 1.104 | Difference [1, 12]: 0.07 | Difference [2, 13]: −0.21 | Cholesterol-free [2, 14]: 0.9987 | Complete ([2]; NCI-H292 cells, complete media): 0.7874

NC(=O)N1c2ccccc2C[C@H](O)c2ccccc21 [Eslicarbazepine]
Cholesterol-free media + simvastatin (0.04 μM) [1, 3]: 1.137 | Complete Media ([1]; drug in complete media): 0.9164 | Difference [1, 4]: −0.22 | Difference [2, 13]: −0.02 | Cholesterol-free [2, 15]: 0.8833 | Complete [2, 16]: 0.8587

COC(=O)CCc1ccc(OCC(O)CNC(C)C)cc1 (stereo not shown) [Esmolol (hydrochloride)]
Cholesterol-free media + simvastatin (0.04 μM) [1, 17]: 1.21 | Complete Media [1, 18]: 1.054 | Difference [1, 4]: −0.16 | Cholesterol-free [2, 15]: 0.7243 | Complete [2, 16]: 0.9329 | Difference ([2]; complete vs cholesterol-free media, >0 enhanced anti-cancer activity, about 0 neutral, <0 antagonist): 0.21

COc1ccc2[n-]c([S+]([O-])Cc3ncc(C)c(OC)c3C)nc2c1.COc1ccc2[n-]c([S+]([O-])Cc3ncc(C)c(OC)c3C)nc2c1.[Mg+2] (stereo not shown) [Esomeprazole magnesium]
Cholesterol-free media + simvastatin (0.04 μM) [1, 17]: 0.8343 | Complete Media [1, 18]: 1.003 | Difference ([1]; complete media minus cholesterol-free media + simvastatin, […]): 0.17 | Cholesterol-free [2, 15]: 0.6797 | Difference ([2]; complete vs cholesterol-free media, […]): 0.50

C[C@]12CC[C@@H]3c4ccc(OC(=O)c5ccccc5)cc4CC[C@H]3[C@@H]1CC[C@@H]2O [Estradiol benzoate]
Cholesterol-free media + simvastatin (0.04 μM) [1, 3]: 1.387 | Complete Media ([1]; drug in complete media): 1.134 | Difference [1, 4]: −0.25 | Cholesterol-free [2, 14]: 1.285 | Complete ([2]; NCI-H292 cells, complete media): 0.9221 | Difference [2, 19]: −0.36

CCC(=O)Oc1ccc2c(c1)CC[C@@H]1[C@@H]2CC[C@]2(C)[C@@H](OC(=O)CC)CC[C@@H]12 [Estradiol dipropionate]
Cholesterol-free media + simvastatin (0.04 μM) [1, 20]: 1.891 | Complete Media [1, 21]: 1.522 | Difference ([1]; complete media vs cholesterol-free media + simvastatin (0.04 μM), […]): −0.37 | Difference [2, 10]: −0.07 | Cholesterol-free [2, 11]: 0.9963 | Complete ([2]; NCI-H292 cells, FDA drug library screen, complete media): 0.9247

CCCCC(=O)O[C@H]1CC[C@H]2[C@@H]3CCc4cc(O)ccc4[C@H]3CC[C@]12C [Estradiol valerianate]
Cholesterol-free media + simvastatin (0.04 μM) [1, 8]: 0.9732 | Complete Media [1, 9]: 0.9423 | Difference ([1]; complete media minus cholesterol-free media + simvastatin (0.04 μM), >0 enhanced anti-cancer activity, about 0 neutral, <0 antagonist): −0.03 | Cholesterol-free [2, 14]: 1.221 | Complete ([2]; NCI-H292 cells, complete media): 0.8253 | Difference [2, 19]: −0.40

C[C@]12CC[C@@H]3c4ccc(O)cc4CC[C@H]3[C@@H]1CC[C@@H]2O [Estradiol]
Cholesterol-free media + simvastatin (0.04 μM) [1, 17]: 1.106 | Complete Media [1, 18]: 1.409 | Difference [1, 12]: 0.30 | Difference [2, 13]: 0.06 | Cholesterol-free [2, 15]: 0.707 | Complete [2, 16]: 0.7678

C[C@]12CC[C@@H]3c4ccc(O)cc4CC[C@H]3[C@@H]1C[C@@H](O)[C@@H]2O [Estriol]
Cholesterol-free media + simvastatin (0.04 μM) [1, 17]: 0.9551 | Complete Media [1, 18]: 0.851 | Difference [1, 4]: −0.10 | Cholesterol-free [2, 14]: 1.14 | Complete ([2]; NCI-H292 cells, complete media): 0.7448 | Difference [2, 19]: −0.40

C[C@]12CC[C@@H]3c4ccc(O)cc4CC[C@H]3[C@@H]1CCC2=O [Estrone]
Cholesterol-free media + simvastatin (0.04 μM) [1, 20]: 1.409 | Complete Media [1, 21]: 1.088 | Difference [1, 4]: −0.32 | Cholesterol-free [2, 14]: 1.426 | Complete ([2]; NCI-H292 cells, complete media): 1.109 | Difference [2, 19]: −0.32

C[C@]12CC[C@@H]3c4ccc(OS(=O)(=O)O)cc4CC[C@H]3[C@@H]1CCC2=O [Estropipate]
Cholesterol-free media + simvastatin (0.04 μM) [1, 17]: 0.9313 | Complete Media [1, 18]: 1.077 | Difference [1, 12]: 0.15 | Difference [2, 5]: −0.48 | Cholesterol-free [2, 6]: 1.475 | Complete [2, 7]: 0.9927

CCN(CC)C(=O)c1ccc(O)c(OC)c1 [Etamivan]
Cholesterol-free media + simvastatin (0.04 μM) [1, 20]: 1.227 | Complete Media [1, 21]: 0.9141 | Difference [1, 4]: −0.31 | Difference [2, 5]: −0.50 | Cholesterol-free [2, 6]: 1.483 | Complete [2, 7]: 0.9848
